According to the supplement of paper PMC10132981, “Formate overflow drives toxic folate trapping in MTHFD1 inhibited cancer cells” (Nature Metabolism, 2023):

What was measured:
SW620 [1] = assay: EC50 for viability (resazurin, 96 h); conditions: RPMI+GlutaMAX (10% FBS, 1% P/S)
HCT116 = assay: EC50 for viability (resazurin, 96 h); conditions: RPMI+GlutaMAX (10% FBS, 1% P/S)
SW620 [2] = assay: cell viability relative to lowest-dose well (resazurin, 96 h); higher = more viable; conditions: RPMI + 10% FBS
Outline: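 Compounds from 10 mM DMSO stocks were dispensed as dilution series onto HCT116 (500 cells/well) or SW620 (1,000 cells/well) cells growing in 384-well plates in 50 µl RPMI, 10% FBS and a metabolite supplement. Plates were incubated 96 h at 37 °C, 5% CO2, then resazurin (10 µg ml^−1) was added and its conversion to resorufin read by fluorescence at 595 nm after 5 h. Viability is shown as percent of the lowest-dose well for independent replicate cultures. Viability was read by resazurin-to-resorufin conversion and normalised to the lowest-dose vehicle well (=100%).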

O=c1[nH]cc(F)c(=O)[nH]1 [5-fluorouracil]
EC50 for viability [µM]
Conditions	metabolite supplement: Folic acid	metabolite supplement: Folinic acid	metabolite supplement: Hypoxanthine	metabolite supplement: Thymidine	metabolite supplement: Thymidine + Folic acid	metabolite supplement: Thymidine + Folinic acid	metabolite supplement: Thymidine + Hypoxanthine	metabolite supplement: Vehicle
HCT116	–	–	3.08	2.22	–	–	3.29	–
SW620 [1]	4.72	4.28	7.63	4.39	4.5	4.32	7.42	5.04

cell viability [%], SW620 [2]
Conditions	metabolite supplement: 50uM thymidine	metabolite supplement: 50uM thymidine + 250uM hypoxanthine	metabolite supplement: 250uM hypoxanthine	metabolite supplement: vehicle
0.0001 M	6.17	8.1	8.23	7.07
0.001 µM	100	100	100	100
0.01 µM	103	99.7	103	104
0.0278 µM	99.6	99.4	102	101
0.0774 µM	97.9	101	98	102
0.215 µM	94.8	99.9	99.2	100
0.599 µM	93.3	97.1	101	99.9
1.67 µM	77.5	87.9	92	84.1
4.64 µM	52.2	65.6	66.7	56.8
12.9 µM	26.5	37	38.5	30.8
35.9 µM	11.9	16	16.8	13.2

Cc1[nH]nc2c1C(c1cc(CO)cc(-c3ccccc3)c1)(C(C)C)C(C#N)=C(N)O2 (stereo unspecified) [SHIN1]
SW620 [1]
Conditions	EC50 for viability [µM]
metabolite supplement: Hypoxanthine	> 10
metabolite supplement: Sodium Formate	> 10
metabolite supplement: Thymidine	1.88
metabolite supplement: Thymidine + Hypoxanthine	> 10
metabolite supplement: Thymidine + Sodium Formate	> 10

cell viability [%], SW620 [2]
Conditions	metabolite supplement: 1mM sodium formate	metabolite supplement: 50uM thymidine	metabolite supplement: 50uM thymidine + 1mM sodium formate	metabolite supplement: 50uM thymidine + 250uM hypoxanthine	metabolite supplement: 250uM hypoxanthine	metabolite supplement: vehicle
0.001 µM	100	100	100	100	100	100
0.01 µM	99.57	98.9	102	103	102	100
0.0233 µM	98.7	99.2	102	103	96.7	95
0.0541 µM	98.5	102	104	103	101	98.63
0.126 µM	97.4	102	104	103	101	97.1
0.293 µM	96.93	99.6	101	105	98.8	95
0.682 µM	95.3	96	103	104	98.8	88.6
1.59 µM	94.8	85.5	100	108	98.8	82.9
3.69 µM	92.3	75	98.1	104	96.4	72.3
8.6 µM	89.6	69.3	95.2	102	93.9	68
20 µM	78.2	66.5	83.8	90.8	84.8	66
